# Experimental data reported in patent publication US20250035641A1, “COMPOSITIONS AND METHODS RELATED TO PROTEIN LABELING” (The Chinese University of Hong Kong, priority 2023, published 2025).
# Legend:
# HTN-BRD4 = target: T1, HTN-BRD4 (Homo sapiens, UniProt O60885); test: Pulse-chase assay (HTN-BRD4 engagement in cells); assay type: cell-based; conditions: 5 μM, within 15 mins treatment, HEK293T HTN-BRD4:fOGT 20:1
# T1 construct: HaloTag fragment; expressed in transfected cells; host or cells: HEK293T
# Experimental: For HTN-BRD4, as the OGTAC-1 to 3 were designed to be irreversibly linked to it, we developed a pulse-chase assay. […] All of three OGTACs efficiently reached HTN-BRD4, fully occupied the protein within 4 h. OGTAC 1 ranked first among three OGTACs, achieving […] 90% engagement within 15 mins treatment.
# 1×10^5 HEK293T cells were seeded in each well of 12 well plate. After cells attached, transfection reagents and plasmids were prepared and added in DMEM. After 24 h transfection, media were replaced by fresh warm complete media with DMSO or compounds. After certain time of OGTACs treatment, media in wells were replaced by fresh warm media with 5 μM rhodamine ligand. The cells were incubated in 37° C.′ for 15 mins. Then, media were aspirated and 100 μL IP lysis buffer (Thermo Scientific 87788) supplemented with 20 μM OGA inhibitor (Thiamet G, Bidepharm BD571819) and 100X protease inhibitor (MedChemExpress. HY-K0010) (referred as complete IP lysis buffer in the later paragraph) was added to each well. The lysate was incubated on ice for 20 min, spun down at 14,000 RPM at 4° C. for 15 mins, and the supernatant were collected for bicinchoninic acid (BCA) assay and normalized to a final 2 mg/mL. […] After running, in gel fluorescence at rhodamine channel (545/575 nm) was analysed by Bio-Rad ChemiDoc MP Imaging System. […]
# HTN-CK2α = HTN-CK2α (Homo sapiens, UniProt P68400); test: O-GlcNAcylation of HTN-CK2α with 0tfOGT; assay type: cell-based; set-up: 0TPR(463-1046)-; expressed in transfected cells; conditions: vs negative control OGTAC-1H
# Chain of HTN-CK2α (P68400 with tags, fused parts or gaps): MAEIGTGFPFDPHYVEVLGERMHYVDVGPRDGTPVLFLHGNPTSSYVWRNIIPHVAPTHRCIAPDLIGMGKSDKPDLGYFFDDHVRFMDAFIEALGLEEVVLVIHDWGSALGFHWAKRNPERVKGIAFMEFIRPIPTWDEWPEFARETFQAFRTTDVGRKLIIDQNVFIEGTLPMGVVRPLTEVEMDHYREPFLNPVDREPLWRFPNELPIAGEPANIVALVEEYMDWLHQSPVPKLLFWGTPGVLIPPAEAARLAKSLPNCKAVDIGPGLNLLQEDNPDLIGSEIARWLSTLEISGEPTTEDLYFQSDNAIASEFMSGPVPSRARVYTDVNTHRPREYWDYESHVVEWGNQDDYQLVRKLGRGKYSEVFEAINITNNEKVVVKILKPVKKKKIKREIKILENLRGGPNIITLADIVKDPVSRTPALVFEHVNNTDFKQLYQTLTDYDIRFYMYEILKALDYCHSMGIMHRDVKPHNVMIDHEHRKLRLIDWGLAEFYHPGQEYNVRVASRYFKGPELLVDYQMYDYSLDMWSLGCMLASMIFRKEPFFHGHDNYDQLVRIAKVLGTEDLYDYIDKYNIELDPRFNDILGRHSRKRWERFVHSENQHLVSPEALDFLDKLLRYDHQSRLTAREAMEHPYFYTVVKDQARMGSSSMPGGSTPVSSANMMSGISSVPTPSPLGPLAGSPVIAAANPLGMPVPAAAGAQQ
# Chain of HTN-CK2α (P62942+O15294 fused P62942:F37V partner): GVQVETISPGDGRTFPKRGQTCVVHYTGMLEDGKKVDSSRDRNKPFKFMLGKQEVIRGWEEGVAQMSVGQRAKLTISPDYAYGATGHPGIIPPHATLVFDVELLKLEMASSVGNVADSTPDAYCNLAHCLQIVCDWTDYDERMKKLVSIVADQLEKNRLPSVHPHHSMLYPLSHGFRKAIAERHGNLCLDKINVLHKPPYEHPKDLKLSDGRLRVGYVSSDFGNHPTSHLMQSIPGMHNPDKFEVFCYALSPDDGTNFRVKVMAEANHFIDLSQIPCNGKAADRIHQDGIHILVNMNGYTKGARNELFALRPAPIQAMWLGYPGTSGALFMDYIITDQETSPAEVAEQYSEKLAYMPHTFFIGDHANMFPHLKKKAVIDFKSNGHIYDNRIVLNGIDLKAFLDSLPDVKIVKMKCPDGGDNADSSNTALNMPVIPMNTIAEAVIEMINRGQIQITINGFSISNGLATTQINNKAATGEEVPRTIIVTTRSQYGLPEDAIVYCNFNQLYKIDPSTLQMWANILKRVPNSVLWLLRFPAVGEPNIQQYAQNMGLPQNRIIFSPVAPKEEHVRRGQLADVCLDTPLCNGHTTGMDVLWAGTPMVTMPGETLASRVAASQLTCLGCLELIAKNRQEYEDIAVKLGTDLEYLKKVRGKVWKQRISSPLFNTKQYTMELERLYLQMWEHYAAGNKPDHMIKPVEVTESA
# Experimental: FIGS. 18A and 18B: Immunoblotting analysis of the global O-GlcNAcylation inducing effect of truncated OGTAC-4 and OGTAC-1 on HTN-BRD4 and HTN-CK2α respectively. (A), O-GlcNAcylation inducing effect of OGTAC-4 is dependent on the expression of 0tfOGT. […] The quantification was conducted by immunoblot signal of probe treatment/control as the mean±s.e.m. of n=2 biologically independent experiments. TR, transfection reagent.
smiles,measurement,setting,value
"CC[C@H](C(=O)N1CCCC[C@H]1C(=O)O[C@H](CCc1ccc(OC)c(OC)c1)c1cccc(OCC(=O)NCCOCCOCCCCCCCl)c1)c1cc(OC)c(OC)c(OC)c1 [OGTAC-1, (R)-1-(3-(2-((2-(2-((6-chlorohexyl)oxy)ethoxy)ethyl)amino)-2-oxoethoxy)phenyl)-3-(3,4-dimethoxyphenyl)propyl (S)-1-((S)-2-(3,4,5-trimethoxyphenyl)butanoyl) piperidine-2-carboxylate]",engagement of HTN-BRD4,HTN-BRD4,90%
same,O-GlcNAcylation level of HTN-CK2α with 0tfOGT,HTN-CK2α,higher O-GlcNAcylation level
